Patent publication US9517237B2, “Compounds and methods for treating multiple sclerosis” (NEURO VIGOR, LLC, priority 2010, dated 2016)

Experiments:
[1] = mouse, in vivo
Procedure: (§1) Hydralazine Treatment. A solution of hydralazine hydrochloride (Sigma) was prepared with phosphate buffered saline. The solution was then sterilized through a filter and stored at 4° C. Hydralazine (1 mg/kg) was administered through daily with intraperitoneal injections from the day the MOG/CFA emulsion was administered until the end of the 30 day study period. For sham treatments, mice were administered saline intraperitoneally rather than the hydralazine solution. Blood pressures were monitored using a CODA 2 system (Kent Scientific Corp.).
(§2) One group of EAE mice are injected with hydralazine (EAE+HZ) at the dose of 1 mg/kg daily starting from the day of induction (n=11). In the sham-treated group (EAE), an equal amount of saline is injected daily (n=12). Both hydralazine and saline (sham) treatments are carried out for 30 days post induction. The behavioral scores of the two groups of mice are recorded daily (FIG. 2 panel A).

EAE mice spinal cord = conditions: thoracic spinal cord cross section, n=3, sham treated 25.58±3.8%
Procedure: Mice were perfusion fixed with 4% paraformaldehyde and the vertebral columns were removed and fixed in 4% paraformaldehyde overnight. Spinal cord tissues were extracted out of the vertebral column, cut into 1 cm pieces, and further fixed in 4% paraformaldhyde for 24-48 hours. The samples were cryoprotected by incubating for 24 h in a 10% sucrose solution, followed by 24 hours in a 20% sucrose solution. The samples were then imbedded in Tissue-Tek OCT compound (VWR, Batavia, Ill.) and frozen in liquid nitrogen. 15 μm sections were cut using a cryostat and mounted on gelatin coated slides. Sections were incubated with 5% goat serum and 0.5% Triton-X100 in phosphate buffered saline (PBS) for 30 minutes as blocking agents. […] All sections were observed by fluorescence microscopy.
For quantification, the thoracic sections were imaged, and Adobe Photoshop was used to outline the demyelination area and total white matter area. Pixel area for each sample was calculated and the percentage of demyelination was obtained by dividing the total demyelinated area by total white matter area. […] For each of the 3 groups, (control, EAE, EAE+HZ), 3 animals were used for immunofluorescence quantification.
Total white matter area and lesion areas are manually outlined and the pixel area is calculated. Percent demyelination is calculated by dividing total demyelinated area by total white matter area.

EAE mice = test system: EAE mice
Procedure: Animals. C57BL/6 female mice (8 weeks old) were purchased from Harlan Laboratories and were maintained in the lab animal housing facilities. These studies were performed in compliance with the Purdue Animal Care and Use Committee protocol guidelines at Purdue University, West Lafayette, Ind.
Induction of EAE. Nine-twelve week old mice were subcutaneously injected with 0.1 mL MOG35-55/CFA emulsion (EK-0115, Hooke Laboratories) in the neck and lower back (total of 0.2 mL). Within two hours of the injection, 0.1 mL pertussis toxin (EK-0115, Hooke Laboratories) was administered intraperitoneally. A second dose of pertussis toxin of the same volume was given 22-26 hours later. The behavioral performance was assessed using a well established 5-point behavioral scoring system (Kalyvas and David, 2004). The animals were placed on a metal grate and their walking ability was recorded. The scoring system is as follows: 0—no deficit; 1—limp tail only; 2—hind limb paresis but without leg dragging; 3—partial hind limb weakness with one or both legs dragging; 4—complete hind limb paralysis; 5—moribund, paralysis in hind limbs and possibly in one forelimb. The animals were monitored and assessed three times during the first week and then assessed daily for the remainder of the study.
as §1, §2
Phenelzine is administered via intraperitoneal (IP) injections at 15 mg/kg for 30 days. […] The highest score for each mouse was taken and averaged within each group. All data are expressed as mean±SEM.

acrolein-lysine adducts = conditions: EAE mice treated with hydralazine, n=3, mean±SEM; EAE 20.27±3.0, control 12.30±1.3
Procedure: Acrolein-lysine adducts in the tissue homogenate was measured using a Bio-Dot SF Microfiltration Apparatus (Bio-Rad, Hercules, Calif., USA), as previously described (Luo et al., 2005a; Shao et al., 2006; Hamann et al., 2008a). Briefly, the tissue was homogenized with TritonX-100 (3%), and the following anti-proteases were added: 2 mmol/L pefabloc, 15 lmol/L pepstatin A, 20 µg/mL aprotinin, and 25 µg/mL leupeptin. The solution was centrifuged to pellet large pieces of tissue and the supernatant was stored at −80° C. until transferred to a nitrocellulose membrane. The membrane was blocked for 1 h in blocking buffer (0.2% casein and 0.1% Tween 20 in PBS) and transferred to 1:1000 polyclonal rabbit anti-acrolein (in blocking buffer with 2% goat serum and 0.025% sodium azide) (Novus Biologicals) for 18 h at 4° C. Next, the membrane was washed in blocking buffer and then transferred to 1:10000 alkaline phosphatase conjugated goat anti-rabbit IgG. […]
The optical density of bands was evaluated using Image J (NIH) and statistical comparison was performed with SAS 9.2 (SAS institute). […]
The acrolein-lysine adducts in control (n=3), EAE mice (n=3) and EAE+HZ mice (n=3) spinal cord are detected using Bio-Dot SF Microfiltration Apparatus. […] Band intensities are analyzed using ImageJ (NIH) and are expressed in arbitrary units. […] All data are expressed as mean±SEM.

SMILES	average systolic pressure of EAE mice [1] [mmHg]	average systolic pressure of normal mice [1] [mmHg]	percent demyelination in white matter (EAE mice spinal cord) [%]	average onset of symptoms (EAE mice; 1 mg/kg daily i.p. from day of induction, n=11, mean±SEM, sham 15.42±0.4) [days post induction]	average behavioral score (highest score for each mouse averaged within group) (EAE mice; 5-point scale, 1 mg/kg daily i.p. from day of induction, mean±SEM, EAE group 3.33±0.3)	acrolein-lysine adduct level in EAE mice spinal cord (acrolein-lysine adducts) [a.u.]	behavioral scores evaluated daily (EAE mice; 5-point scale, phenelzine IP 15 mg/kg for 30 days, vs sham)	mean behavioral scores (highest score for each mouse averaged) (EAE mice; phenelzine IP 15 mg/kg for 30 days, vs EAE, p<0.005)	time to EAE symptom onset (EAE mice; phenelzine IP 15 mg/kg for 30 days, vs sham, p<0.005)
NNc1nncc2ccccc12 [hydralazine]	134.8±4.5	118.5±6.4	5.10±4.2	21.73±2.1	1.72±0.4	15.14±1.6			
NNCCc1ccccc1 [phenelzine]							significant differences for all comparisons following day 14	mean behavioral scores are significantly increased in EAE mice compared to the phenelzine treated (EAE+PLZ) group	significant delay in disease progression
